Laboratory results published in ChEMBL document CHEMBL3734733, “Optimization of on-resin palladium-catalyzed Sonogashira cross-coupling reaction for peptides and its use in a structure-activity relationship study of a class B GPCR ligand” (Eur J Med Chem, 2015).
pIC50: −log10 of the molar value. The source made the active and inactive calls. No cut-off for these calls is given here.

Columns and labels:
SH-SY5Y = experiment: Neuroprotective activity against MPP+-induced toxicity in human SH-SY5Y cells assessed as increase in cell viability at 100 nM preincubated for 4 hrs followed by incubation with MPP+ for 20 hrs measured after 24 hrs by MTS assay relative to control; type: functional
[1] = target: T1, Vasoactive intestinal polypeptide receptor 2 (Homo sapiens) (UniProt P41587); experiment: Activation of VPAC2 in human SH-SY5Y cells assessed as stimulation of forskolin-induced cAMP production at 10^-7 to 10^-5 M after 30 mins; type: functional, cell-based
T1 sequence (whole entry): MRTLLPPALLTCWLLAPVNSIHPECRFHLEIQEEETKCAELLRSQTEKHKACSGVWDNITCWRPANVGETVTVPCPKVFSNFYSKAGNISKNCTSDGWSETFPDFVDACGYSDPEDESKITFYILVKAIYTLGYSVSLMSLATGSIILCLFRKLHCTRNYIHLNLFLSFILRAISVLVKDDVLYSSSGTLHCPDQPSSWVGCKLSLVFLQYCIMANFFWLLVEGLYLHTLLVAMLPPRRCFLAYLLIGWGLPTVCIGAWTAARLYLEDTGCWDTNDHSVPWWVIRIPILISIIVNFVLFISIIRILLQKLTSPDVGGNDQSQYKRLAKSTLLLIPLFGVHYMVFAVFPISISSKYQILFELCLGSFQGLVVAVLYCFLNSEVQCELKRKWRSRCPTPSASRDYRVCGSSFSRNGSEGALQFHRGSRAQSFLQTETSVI

[2] = target: T2, Pituitary adenylate cyclase-activating polypeptide type I receptor (Homo sapiens, UniProt P41586); experiment: Activation of PAC1 in human SH-SY5Y cells assessed as stimulation of forskolin-induced cAMP production at 10^-7 to 10^-5 M after 30 mins; type: cell-based
Target sequence in this assay (P41586 21-468 limits assumed): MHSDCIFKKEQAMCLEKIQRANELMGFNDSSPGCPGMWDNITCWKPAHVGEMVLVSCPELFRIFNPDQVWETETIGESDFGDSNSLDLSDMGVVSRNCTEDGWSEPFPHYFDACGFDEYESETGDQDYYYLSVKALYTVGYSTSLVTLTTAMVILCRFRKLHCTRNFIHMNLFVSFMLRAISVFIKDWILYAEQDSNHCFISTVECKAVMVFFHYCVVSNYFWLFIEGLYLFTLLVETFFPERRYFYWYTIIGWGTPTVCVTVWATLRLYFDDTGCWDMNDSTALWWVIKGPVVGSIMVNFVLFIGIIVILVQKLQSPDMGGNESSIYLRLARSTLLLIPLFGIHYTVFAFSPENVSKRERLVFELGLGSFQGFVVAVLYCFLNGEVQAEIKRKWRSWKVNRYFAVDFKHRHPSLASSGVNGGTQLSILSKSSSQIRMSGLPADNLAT

[3] = target: T3, Vasoactive intestinal polypeptide receptor 1 (Homo sapiens) (UniProt P32241); experiment: Activation of VPAC1 in human SH-SY5Y cells assessed as stimulation of forskolin-induced cAMP production at 10^-7 to 10^-5 M after 30 mins; type: functional, cell-based
T3 sequence (whole entry): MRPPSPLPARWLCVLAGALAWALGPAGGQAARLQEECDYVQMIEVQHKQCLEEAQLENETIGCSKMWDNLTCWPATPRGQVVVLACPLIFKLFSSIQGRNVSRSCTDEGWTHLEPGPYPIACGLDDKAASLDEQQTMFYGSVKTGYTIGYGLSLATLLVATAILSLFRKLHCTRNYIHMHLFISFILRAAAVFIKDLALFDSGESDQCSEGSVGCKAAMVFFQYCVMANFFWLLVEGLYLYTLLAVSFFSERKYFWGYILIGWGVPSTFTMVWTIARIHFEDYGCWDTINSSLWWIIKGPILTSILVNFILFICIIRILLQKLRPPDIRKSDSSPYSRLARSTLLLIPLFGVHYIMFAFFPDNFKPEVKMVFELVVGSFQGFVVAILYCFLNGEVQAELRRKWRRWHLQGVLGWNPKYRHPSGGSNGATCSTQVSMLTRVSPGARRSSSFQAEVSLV

[4] = target: T4, Vasoactive intestinal polypeptide receptor 1 (Homo sapiens, UniProt P32241); experiment: Displacement of Ac-[125I]-PACAP27 from recombinant human VPAC1 expressed in CHO cells after 90 mins by gamma counting analysis; type: cell-based; conditions: for pIC50: read-out: IC50
T4 sequence (P32241 whole entry): T3 sequence (whole entry)

[5] = target: T2, Pituitary adenylate cyclase-activating polypeptide type I receptor; experiment: Displacement of Ac-[125I]-PACAP27 from recombinant human PAC1 expressed in CHO cells after 90 mins by gamma counting analysis; type: cell-based; conditions: for pIC50: read-out: IC50
Target sequence in this assay (P41586 whole entry): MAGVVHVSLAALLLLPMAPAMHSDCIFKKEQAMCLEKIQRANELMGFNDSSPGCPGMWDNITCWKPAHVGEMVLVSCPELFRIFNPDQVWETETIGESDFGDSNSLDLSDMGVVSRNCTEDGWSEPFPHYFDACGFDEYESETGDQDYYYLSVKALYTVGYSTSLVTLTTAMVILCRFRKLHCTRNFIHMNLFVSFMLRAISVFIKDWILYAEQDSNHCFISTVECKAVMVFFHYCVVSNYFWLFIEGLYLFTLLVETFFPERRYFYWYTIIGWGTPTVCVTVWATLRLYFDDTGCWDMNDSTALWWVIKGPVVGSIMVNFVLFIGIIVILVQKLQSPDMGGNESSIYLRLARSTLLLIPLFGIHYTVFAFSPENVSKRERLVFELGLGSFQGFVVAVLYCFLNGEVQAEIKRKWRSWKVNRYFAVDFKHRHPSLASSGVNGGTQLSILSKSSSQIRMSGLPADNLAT

[6] = target: T5, Vasoactive intestinal polypeptide receptor 2 (Homo sapiens, UniProt P41587); experiment: Displacement of Ac-[125I]-PACAP27 from recombinant human VPAC2 expressed in CHO cells after 90 mins by gamma counting analysis; type: cell-based; conditions: for pIC50: read-out: IC50
T5 sequence (P41587 whole entry): T1 sequence (whole entry)

Activity [1]	Activity [2]	Activity [3]	pIC50 [4]	pIC50 [5]	IC50 ([5]; read-out: pIC50 (converted))	pIC50 [6]	IC50 ([4]; read-out: pIC50 (converted))	IC50 ([6]; read-out: pIC50 (converted))	Compound	Activity (SH-SY5Y)
–	–	–	–	–	–	–	–	–	CC[C@H](C)[C@H](NC(=O)CNC(=O)[C@H](CC(=O)O)NC(=O)[C@H](CO)NC(=O)[C@@H](N)Cc1cnc[nH]1)C(=O)N[C@@H](Cc1ccccc1)C(=O)N[C@H](C(=O)N[C@@H](CC(=O)O)C(=O)N[C@@H](CO)C(=O)N[C@@H](Cc1ccc(O)cc1)C(=O)N[C@@H](CO)C(=O)N[C@@H](CCCNC(=N)N)C(=O)N[C@@H](Cc1ccc(O)cc1)C(=O)N[C@@H](CCCNC(=N)N)C(=O)N[C@@H](CCCCN)C(=O)N[C@@H](CCC(N)=O)C(=O)N[C@@H](CCSC)C(=O)N[C@@H](C)C(=O)N[C@H](C(=O)N[C@@H](CCCCN)C(=O)N[C@@H](CCCCN)C(=O)N[C@@H](Cc1ccc(O)cc1)C(=O)N[C@@H](CC(C)C)C(=O)N[C@@H](C)C(=O)N[C@@H](C)C(=O)N[C@H](C(=O)N[C@@H](CC(C)C)C(N)=O)C(C)C)C(C)C)[C@@H](C)O	85%
Active	Active	Active	7.92	7.28	44.7 nM	7.28	–	–	CC[C@H](C)[C@H](NC(=O)CNC(=O)[C@H](CC(=O)O)NC(=O)[C@H](CO)NC(=O)[C@@H](N)Cc1cnc[nH]1)C(=O)N[C@@H](Cc1ccc(C#Cc2ccccc2)cc1)C(=O)N[C@H](C(=O)N[C@@H](CC(=O)O)C(=O)N[C@@H](CO)C(=O)N[C@@H](Cc1ccc(O)cc1)C(=O)N[C@@H](CO)C(=O)N[C@@H](CCCNC(=N)N)C(=O)N[C@@H](Cc1ccc(O)cc1)C(=O)N[C@@H](CCCNC(=N)N)C(=O)N[C@@H](CCCCN)C(=O)N[C@@H](CCC(N)=O)C(=O)N[C@@H](CCSC)C(=O)N[C@@H](C)C(=O)N[C@H](C(=O)N[C@@H](CCCCN)C(=O)N[C@@H](CCCCN)C(=O)N[C@@H](Cc1ccc(O)cc1)C(=O)N[C@@H](CC(C)C)C(=O)N[C@@H](C)C(=O)N[C@@H](C)C(=O)N[C@H](C(=O)N[C@@H](CC(C)C)C(N)=O)C(C)C)C(C)C)[C@@H](C)O	85%
–	–	–	–	–	–	–	14.1 nM	22.9 nM	CC[C@H](C)[C@H](NC(=O)CNC(=O)[C@H](CC(=O)O)NC(=O)[C@H](CO)NC(=O)[C@@H](N)Cc1cnc[nH]1)C(=O)N[C@@H](Cc1ccc(-c2ccccc2)cc1)C(=O)N[C@H](C(=O)N[C@@H](CC(=O)O)C(=O)N[C@@H](CO)C(=O)N[C@@H](Cc1ccc(O)cc1)C(=O)N[C@@H](CO)C(=O)N[C@@H](CCCNC(=N)N)C(=O)N[C@@H](Cc1ccc(O)cc1)C(=O)N[C@@H](CCCNC(=N)N)C(=O)N[C@@H](CCCCN)C(=O)N[C@@H](CCC(N)=O)C(=O)N[C@@H](CCSC)C(=O)N[C@@H](C)C(=O)N[C@H](C(=O)N[C@@H](CCCCN)C(=O)N[C@@H](CCCCN)C(=O)N[C@@H](Cc1ccc(O)cc1)C(=O)N[C@@H](CC(C)C)C(=O)N[C@@H](C)C(=O)N[C@@H](C)C(=O)N[C@H](C(=O)N[C@@H](CC(C)C)C(N)=O)C(C)C)C(C)C)[C@@H](C)O	–
Active	Active	Active	8.05	7.24	–	7.44	–	–	CC[C@H](C)[C@H](NC(=O)CNC(=O)[C@H](CC(=O)O)NC(=O)[C@H](CO)NC(=O)[C@@H](N)Cc1cnc[nH]1)C(=O)N[C@@H](Cc1ccc(C#Cc2ccc(F)cc2)cc1)C(=O)N[C@H](C(=O)N[C@@H](CC(=O)O)C(=O)N[C@@H](CO)C(=O)N[C@@H](Cc1ccc(O)cc1)C(=O)N[C@@H](CO)C(=O)N[C@@H](CCCNC(=N)N)C(=O)N[C@@H](Cc1ccc(O)cc1)C(=O)N[C@@H](CCCNC(=N)N)C(=O)N[C@@H](CCCCN)C(=O)N[C@@H](CCC(N)=O)C(=O)N[C@@H](CCSC)C(=O)N[C@@H](C)C(=O)N[C@H](C(=O)N[C@@H](CCCCN)C(=O)N[C@@H](CCCCN)C(=O)N[C@@H](Cc1ccc(O)cc1)C(=O)N[C@@H](CC(C)C)C(=O)N[C@@H](C)C(=O)N[C@@H](C)C(=O)N[C@H](C(=O)N[C@@H](CC(C)C)C(N)=O)C(C)C)C(C)C)[C@@H](C)O	85%
